Test systems include NCI-H522 lung; MALME-3M melanoma; ACHN renal; HCT-15 colon; SNB-75 CNS; CAKI-1 renal; SK-MEL-2 melanoma; IGROV1 ovarian; U251 CNS.
Common to all, as to assay: NCI-60 cell line screen, 48 h

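Cells were grown in 96-well plates and exposed to each compound for 48 hours at five concentrations; endpoints were interpolated linearly between bracketing concentrations, or set to the highest concentration if not reached. GI50 is the concentration that inhibits growth by half. TGI marks complete inhibition of growth.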

With `O=C1c2ccccc2-c2c1c1ccccc1c(=O)n2CCCCNCCCn1c2c(c3ccccc3c1=O)C(=O)c1ccccc1-2`, the GI50 in the assay with NCI-H522 lung was 0.361 µM; in the assay on MALME-3M melanoma, 1.41 µM; in the assay on ACHN renal, 0.0416 µM; in the assay on HCT-15 colon it was 0.143 µM; in the assay on SNB-75 CNS, 6.45 µM; in the assay with CAKI-1 renal, 0.71 µM. The GI50 in the assay on SK-MEL-2 melanoma was 3.51 µM. The TGI was 6.39 µM with NCI-H522 lung; 6.03 µM in the assay on MALME-3M melanoma; 2.31 µM in the assay with ACHN renal; 0.624 µM in the assay with HCT-15 colon; 28.3 µM in the assay with SNB-75 CNS; 4.21 µM in the assay with CAKI-1 renal. Besides, in the assay with SK-MEL-2 melanoma, the TGI was found to be 15.2 µM.

For the compound `N#Cc1ccccc1NC(=O)/C(=N\N)C(C(=O)c1ccncc1)C1OC(=O)c2ccccc21` (centres undefined), the TGI in the assay with NCI-H522 lung, in the assay with IGROV1 ovarian, in the assay with MALME-3M melanoma, in the assay with U251 CNS, in the assay with ACHN renal and in the assay on HCT-15 colon was above 100 µM in each case. The TGI in the assay with SK-MEL-2 melanoma is above 100 µM.

Consider `CC(C)(C)OC1=C(OC(C)(C)C)C(O)(c2ccccc2)C1=O` (centres undefined), for which the TGI in the assay on IGROV1 ovarian, with MALME-3M melanoma, with U251 CNS, with ACHN renal, with HCT-15 colon and in the assay on SNB-75 CNS was above 100 µM in each case.

On to `FC(F)(F)Oc1cccc(-c2cnc3ccc(-c4ccncc4)nn23)c1`, for which the GI50 with NCI-H522 lung was 0.771 µM; with IGROV1 ovarian, 0.502 µM; in the assay on MALME-3M melanoma, 2.35 µM; in the assay on U251 CNS, 0.833 µM; in the assay with ACHN renal, 0.447 µM; in the assay with HCT-15 colon, 0.608 µM. For the same compound, the GI50 with SNB-75 CNS was 1.73 µM; in the assay with CAKI-1 renal, 0.417 µM. The TGI in the assay on NCI-H522 lung is 2.82 µM; with IGROV1 ovarian it was 5.46 µM; with MALME-3M melanoma, above 100 µM; with U251 CNS, above 100 µM; in the assay with ACHN renal it was 4.8 µM; in the assay with HCT-15 colon it was above 100 µM. Also, the TGI with SNB-75 CNS came out at 5.14 µM; with CAKI-1 renal it was 4.11 µM.

Turning to `COC(=O)C1=C(c2ccc(OC)c(OC)c2)OC(c2ccc(OC)c(OC)c2)C1` (centres undefined), the TGI in the assay on IGROV1 ovarian is above 100 µM; in the assay on MALME-3M melanoma it was 69.3 µM; in the assay on U251 CNS, above 100 µM; in the assay on ACHN renal it was above 100 µM; with HCT-15 colon it was above 100 µM; in the assay on SNB-75 CNS, above 100 µM. Besides, in the assay on SK-MEL-2 melanoma, the TGI is above 100 µM.

On to `COc1c(C=O)c2c(c(OC)c1OC)-c1ccc(OC)c(=O)cc1[C@@H](NC(C)=O)CC2`, for which the TGI in the assay with IGROV1 ovarian was 76.6 µM; in the assay on MALME-3M melanoma, above 100 µM; in the assay on U251 CNS it was above 25.5 µM; in the assay with ACHN renal it was above 100 µM; in the assay on HCT-15 colon it was above 100 µM; with SNB-75 CNS, above 100 µM. Moreover, the results for the TGI in the assay on CAKI-1 renal and in the assay on SK-MEL-2 melanoma were above 30.9 µM and 2.57 µM, respectively.

In the case of `CC(C)/C=C1\CCC(CN2CCCC2)C1=O` (centres undefined), the TGI in the assay with NCI-H522 lung was 3.71 µM; in the assay with IGROV1 ovarian it was above 62.5 µM; in the assay on MALME-3M melanoma, 17.1 µM; in the assay with U251 CNS, 21 µM; with ACHN renal, 32.2 µM; in the assay with HCT-15 colon it was 18.3 µM. For the same compound, the TGI worked out at 10.2 µM with CAKI-1 renal and 37.7 µM in the assay with SK-MEL-2 melanoma.

Consider `NCCNc1c2c(c(NCCN)c3c(CO)c[nH]c13)C(=O)c1ccccc1C2=O`, for which the GI50 was 8.13 µM in the assay on NCI-H522 lung; 15 µM in the assay on IGROV1 ovarian; 8.51 µM in the assay with MALME-3M melanoma; 2.53 µM in the assay with U251 CNS; 35.9 µM with ACHN renal; above 100 µM in the assay with HCT-15 colon. Also, the GI50 in the assay on SNB-75 CNS was 24.3 µM. The TGI with NCI-H522 lung is above 100 µM; in the assay on IGROV1 ovarian, above 100 µM; in the assay with MALME-3M melanoma it was 26.3 µM; in the assay on U251 CNS, above 100 µM; in the assay on ACHN renal it was above 100 µM; in the assay with HCT-15 colon it was above 100 µM. The compound further returned a TGI in the assay on SNB-75 CNS above 100 µM.

With `Cc1ccc2c(c1)C(C)Cc1c(ncnc1-n1cnc3ccccc31)N2C` (centres undefined), the GI50 in the assay on NCI-H522 lung was 0.204 µM; with IGROV1 ovarian, 1.17 µM; in the assay with U251 CNS it was 0.415 µM; with ACHN renal, 0.953 µM; in the assay on HCT-15 colon, 0.414 µM; in the assay on SNB-75 CNS, 0.3 µM. Further, the GI50 in the assay on CAKI-1 renal is 0.337 µM; in the assay with SK-MEL-2 melanoma, 0.547 µM. The TGI in the assay on NCI-H522 lung came to 10.8 µM; in the assay on IGROV1 ovarian, 28.4 µM; in the assay on U251 CNS it was 15.9 µM; in the assay on ACHN renal it was 20.3 µM; in the assay on HCT-15 colon it was 12.7 µM; in the assay on SNB-75 CNS, 20.1 µM. Further, the figures for the TGI with CAKI-1 renal and in the assay on SK-MEL-2 melanoma were 17.8 µM and 21.9 µM, respectively.

With `Cc1ccc(NC(=O)c2cc3cc(N=Nc4ccc(Br)cc4)ccc3oc2=O)cc1`, the TGI in the assay with NCI-H522 lung, in the assay on MALME-3M melanoma, in the assay with U251 CNS, with ACHN renal, with HCT-15 colon and in the assay with SNB-75 CNS was above 100 µM throughout. In addition, the TGI in the assay on CAKI-1 renal and in the assay on SK-MEL-2 melanoma was above 100 µM throughout.

Take `Clc1ncnc(Cl)c1Cl`: the TGI in the assay on NCI-H522 lung, with IGROV1 ovarian, with MALME-3M melanoma, with U251 CNS, in the assay with ACHN renal and in the assay on HCT-15 colon was above 100 µM throughout. Moreover, the TGI with SNB-75 CNS and with CAKI-1 renal was above 100 µM throughout.

As to `COc1ccc(C2CC(c3cc(OC)c(OC)c(OC)c3)=NO2)cc1OCCCCOc1cc2c(cc1OC)C(=O)N1CCC[C@H]1C=N2` (some centres undefined), the GI50 with NCI-H522 lung was 0.61 µM; in the assay on IGROV1 ovarian it was 1.57 µM; in the assay with U251 CNS it was 1.73 µM; in the assay on ACHN renal it was 2.41 µM; in the assay on HCT-15 colon, 2.27 µM; in the assay with SNB-75 CNS it was 1.71 µM. Moreover, the GI50 is 3.09 µM with CAKI-1 renal and 2.03 µM with SK-MEL-2 melanoma. The TGI in the assay on NCI-H522 lung was determined as 2.28 µM; with IGROV1 ovarian, 3.06 µM; in the assay with U251 CNS, 3.61 µM; in the assay with ACHN renal, 5.71 µM; in the assay with HCT-15 colon, 5.54 µM; in the assay with SNB-75 CNS it was 3.29 µM. For the same compound, the TGI with CAKI-1 renal was above 100 µM; in the assay with SK-MEL-2 melanoma, 4.8 µM.

On to `COC(=O)CCC(=O)C(=O)OC`, for which the GI50 is 13400 µM in the assay on NCI-H522 lung; 19000 µM in the assay with IGROV1 ovarian; 37900 µM in the assay on MALME-3M melanoma; 33400 µM in the assay on U251 CNS; 16300 µM in the assay on ACHN renal; 31500 µM in the assay with HCT-15 colon. The values for the GI50 with SNB-75 CNS and in the assay on SK-MEL-2 melanoma were 14800 µM and 19700 µM, respectively. Moreover, the TGI in the assay on NCI-H522 lung was found to be 30500 µM; with IGROV1 ovarian, 76800 µM; with SK-MEL-2 melanoma it was 41400 µM.

The values above are taken from PubChem BioAssay (NCI).
